Reference: patent publication US10947196B2, “Beta adrenergic agonist and methods of using the same” (CURASEN THERAPEUTICS, INC., priority 2019, dated 2021)
Like-named read-outs stand apart in the source and are kept apart here.

Assays:
β2 adrenergic receptor = β2 adrenergic receptor (Homo sapiens (Human), UniProt P07550); assay: cAMP Gs dynamic HTRF assay, β2 expressing CHO cells; format: cell-based
Description: (§1) cAMP homogeneous time-resolved fluorescence (HTRF). Compound efficacy was determined using the cAMP Gs dynamic HTRF assay (Cisbio, catalog #62AM4PEC) largely following the manufacturer's instructions, also detailed below.
(§2) Compound preparation. […] Standard serial dilution curves were 10-point, 5-fold dilutions starting from a highest concentration of 10 μM. […] Assay plates were centrifuged at 500×g for 10 seconds. Compounds and IBMX were prepared at 2× final dose to compensate for addition of cells.
(§3) Cell preparation. 1× stimulation buffer, washing PBS (Dulbecco's phosphate-buffered saline, −Mg −Ca; Caisson Labs, catalog #PBL01), assay PBS (Dulbecco's phosphate-buffered saline, +Mg, +Ca; Caisson Labs, catalog #PBL02) and Versene (0.02% EDTA disodium salt solution in PBS without calcium or magnesium; Caisson Labs, catalog #EDL01) were pre-warmed to 37° C. Cells expressing beta-adrenergic receptor were washed in washing PBS to remove growth medium and then released from the surface by incubating with Versene for 5-10 minutes at 37° C. Cells were harvested using assay PBS, counted manually by hemocytometer or by an automated cell counter, pelleted by centrifugation (200×g, 5 minutes) and resuspended in 37° C. 1× stimulation buffer to a final density of 1.5×10^6 cells/mL. 5 μL of the suspended cell solution (7500 cell total) were added to all wells of the 384 well assay plate, the assay plate was covered with an Axygen® plate seal (Corning PCR-SP) and incubated in a humidified 37° C. environment supplemented with 5% CO2 for 30 minutes.
(§4) HTRF reagent addition, reading and data analysis. After 30 minutes of cell stimulation with test compound, the assay plates were centrifuged at 500×g for 10 seconds, and incubation was stopped with the addition of 5 μL cAMP-D2 acceptor, diluted 1:21 in detection and lysis buffer 2 (Cisbio 62CL2FDF) was added to all cells. Subsequently, 5 μL Anti-cAMP-Eu Donor, diluted 1:21 in detection and lysis buffer 2, was added to cells. Plates were sealed and reactions gently ‘vortexed’ at 900 rpm on a Heidolph Titramax 1000 for at least 30 minutes at room temperature. Plates were centrifuged again at 500×g for 10 seconds, and HTRF was measured using a Tecan Spark plate reader at 50 flashes per well. […] Potency estimates (EC50) were derived from the four-parameter nonlinear regression of the concentration-effect curve and an estimate of relative efficacy was determined by comparing the magnitude of the test compound HTRF signal window (min−max dose) with the signal window of the full agonist control, isoproterenol.

β1-adrenergic receptor = β1-adrenergic receptor (Homo sapiens (Human), UniProt P08588); assay: cAMP Gs dynamic HTRF assay, β1 expressing CHO cells; format: cell-based
Description: as §1, §2, §3, §4

[1] = B2-AR, CHO-K1 (HitHunter), read-out: Average pEC50 [Receptor subtype: B2-AR, Cell type: CHO-K1 (HitHunter)] (converted)
[2] = B1-AR, CHO-K1 (HitHunter), read-out: Average pEC50 [Receptor subtype: B1-AR, Cell type: CHO-K1 (HitHunter)] (converted)
[3] = B2-AR, CHO-K cells, read-out: Average EC50 [Receptor subtype: B2-AR, Cell type: CHO-K]
[4] = B1-AR, CHO-K cells, read-out: Average EC50 [Receptor subtype: B1-AR, Cell type: CHO-K]

β2 adrenergic receptor, sequence (P07550 whole entry, species assumed): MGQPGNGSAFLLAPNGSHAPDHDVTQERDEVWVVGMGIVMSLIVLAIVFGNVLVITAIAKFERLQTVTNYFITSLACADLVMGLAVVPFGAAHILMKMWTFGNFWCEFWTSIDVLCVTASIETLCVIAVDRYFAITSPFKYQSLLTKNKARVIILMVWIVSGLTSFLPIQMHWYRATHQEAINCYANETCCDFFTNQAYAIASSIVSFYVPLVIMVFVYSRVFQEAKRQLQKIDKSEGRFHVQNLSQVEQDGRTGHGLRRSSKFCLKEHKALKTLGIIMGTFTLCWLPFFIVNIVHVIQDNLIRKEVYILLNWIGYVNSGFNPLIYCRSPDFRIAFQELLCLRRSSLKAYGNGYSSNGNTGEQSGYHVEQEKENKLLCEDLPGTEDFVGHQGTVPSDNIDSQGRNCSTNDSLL
β1-adrenergic receptor, sequence (P08588 whole entry, species assumed): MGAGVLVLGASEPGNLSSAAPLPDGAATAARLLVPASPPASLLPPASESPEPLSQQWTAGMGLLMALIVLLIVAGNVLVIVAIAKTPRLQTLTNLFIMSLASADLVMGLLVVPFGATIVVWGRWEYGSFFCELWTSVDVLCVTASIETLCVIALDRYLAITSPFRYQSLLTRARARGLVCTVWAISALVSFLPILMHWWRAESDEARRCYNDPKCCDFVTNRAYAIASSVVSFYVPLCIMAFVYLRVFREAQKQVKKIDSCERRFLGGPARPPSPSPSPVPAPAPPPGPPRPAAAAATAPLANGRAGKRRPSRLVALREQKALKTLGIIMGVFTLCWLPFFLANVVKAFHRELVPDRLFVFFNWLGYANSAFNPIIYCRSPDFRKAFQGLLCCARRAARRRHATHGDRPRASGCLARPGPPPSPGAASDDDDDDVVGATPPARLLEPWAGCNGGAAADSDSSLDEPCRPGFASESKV

| Structure (SMILES) | EC50 (β2 adrenergic receptor; [1]) | EC50 (β1-adrenergic receptor; [2]) | EC50 (β2 adrenergic receptor; [3]) | EC50 (β1-adrenergic receptor; [4]) | other results |
| --- | --- | --- | --- | --- | --- |
| CC(C)(C)NC[C@H](O)c1cccc(-n2cccn2)n1 [Compound 03-214] | < 10 nM | 100 to 1000 nM | – | – | – |
| Cc1ccc([C@@H](O)CNC(C)(C)C)c(C2=CCCC2)n1 [Compound 03-90] | > 1000 nM | > 1000 nM | – | – | – |
| CC(C)(C)NC[C@H](O)c1cccc(C2CCCC2)n1 [Compound 03-198] | 10 to 100 nM | > 1000 nM | – | – | – |
| O[C@@H](CNC1CCOCC1)c1cccc(C(F)(F)F)n1 [Compound 03-25] | > 1000 nM | – | > 1000 nM | > 1000 nM | Average pEC50 [Receptor subtype: B1-AR; Cell type: CHO-K1 (HitHunter)] (β1-adrenergic receptor; B1-AR, CHO-K1 (HitHunter)): D (D < 6) |
| CC(C)(C)NC[C@H](O)c1cc(C(F)(F)F)cnc1C1=CCCC1 [Compound 03-92] | > 1000 nM | > 1000 nM | – | – | – |
| CC(C)(C)NC[C@H](O)c1cccc(-c2cnn[nH]2)n1 [Compound 03-200] | < 10 nM | 10 to 100 nM | – | – | – |
| CC(C)Nc1cccc([C@H](O)CNC(C)(C)C)n1 [Compound 03-232] | 10 to 100 nM | 10 to 100 nM | – | – | – |
| CC(C)(C)NC[C@@H](O)c1cccc(-n2cccn2)n1 [Compound 03-225] | 100 to 1000 nM | 100 to 1000 nM | – | – | – |
| CC(C)(C)NC[C@@H](O)c1cccc(NC2CCC2)n1 [Compound 03-229] | > 1000 nM | > 1000 nM | – | – | – |
| CC(C)(C)NC[C@@H](O)c1cccc(N2CCOCC2)n1 [Compound 03-158] | 10 to 100 nM | – | 10 to 100 nM | > 1000 nM | Average pEC50 [Receptor subtype: B1-AR; Cell type: CHO-K1 (HitHunter)] (β1-adrenergic receptor; B1-AR, CHO-K1 (HitHunter)): D (D < 6) |
| CC(C)(C)NC[C@H](O)c1cccc(N2CC3CCCC3C2)n1 (stereo partly drawn) [Compound 03-135] | < 10 nM | – | < 10 nM | 100 to 1000 nM | Average pEC50 [Receptor subtype: B1-AR; Cell type: CHO-K1 (HitHunter)] (β1-adrenergic receptor; B1-AR, CHO-K1 (HitHunter)): C (C = <7-6) |
| CC(C)(C)NC[C@H](O)c1cccc(N2CCOCC2)n1 [Compound 03-157] | < 10 nM | – | < 10 nM | < 10 nM | Average pEC50 [Receptor subtype: B1-AR; Cell type: CHO-K1 (HitHunter)] (β1-adrenergic receptor; B1-AR, CHO-K1 (HitHunter)): A (A > 8) |
| CC(C)(C)NC[C@@H](O)c1cccc(C#N)n1 [Compound 03-48, (R)-6-(2-(tert-butylamino)-1-hydroxyethyl)picolinonitrile] | – | – | > 1000 nM | > 1000 nM | Average pEC50 [Receptor subtype: B2-AR; Cell type: CHO-K1 (HitHunter)] (β2 adrenergic receptor; B2-AR, CHO-K1 (HitHunter)): C-D; Average pEC50 [Receptor subtype: B1-AR; Cell type: CHO-K1 (HitHunter)] (β1-adrenergic receptor; B1-AR, CHO-K1 (HitHunter)): D (D < 6) |
| CC(C)(C)NC[C@@H](O)c1cccc(C2=CCCC2)n1 [Compound 03-234] | 10 to 100 nM | 10 to 100 nM | – | – | – |
| CCN(CC)c1cccc([C@H](O)CNC(C)(C)C)n1 [Compound 03-160] | 100 to 1000 nM | – | – | 100 to 1000 nM | – |
| CC(C)(C)NC[C@H](O)c1ccc2ccccc2n1 [Compound 03-165] | – | – | < 10 nM | < 10 nM | – |
| CC(C)(C)NC[C@H](O)c1cccc(NCC(F)(F)F)n1 [Compound 03-266] | < 10 nM | < 10 nM | – | – | – |
| COc1ccc(C[C@@H](C)NC[C@H](O)c2cccc(C3CCCC3)n2)cc1 [Compound 03-265] | < 10 nM | 10 to 100 nM | – | – | – |
| Cc1cc([C@H](O)CNC(C)(C)C)nc(C(F)(F)F)c1 [Compound 03-20] | 100 to 1000 nM | > 1000 nM | 100 to 1000 nM | > 1000 nM | – |
| Cc1ccc([C@@H](O)CNC(C)(C)C)c(C2CCCC2)n1 [Compound 03-65] | 10 to 100 nM | > 1000 nM | – | – | – |

| Structure (SMILES) | EC50 (β2 adrenergic receptor; [1]) | EC50 (β1-adrenergic receptor; [2]) | EC50 (β2 adrenergic receptor; [3]) | EC50 (β1-adrenergic receptor; [4]) | other results |
| --- | --- | --- | --- | --- | --- |
| CC(C)(C)NC[C@H](O)c1cccnc1C1CCC1 [Compound 03-68] | 10 to 100 nM | 100 to 1000 nM | – | – | – |
| CC(C)(C)NC[C@@H](O)c1cccc(-c2ccccc2F)n1 [Compound 03-156] | 10 to 100 nM | > 1000 nM | 10 to 100 nM | > 1000 nM | – |
| Cn1ccc(-c2cccc([C@@H](O)CNC(C)(C)C)n2)n1 [Compound 03-216] | 10 to 100 nM | > 1000 nM | – | – | – |
| CC(C)(C)NC[C@H](O)c1ccc2cccc(C(F)(F)F)c2n1 [Compound 03-163] | – | – | < 10 nM | < 10 nM | – |
| CC(=O)Nc1cccc([C@H](O)CNC(C)(C)C)n1 [Compound 03-239] | 10 to 100 nM | 100 to 1000 nM | – | – | – |
| Cc1cccnc1[C@@H](O)CNC(C)(C)C [Compound 03-4] | – | – | – | – | EC50 (β2 adrenergic receptor; cAMP HTRF, read-out: β2 EC50): > 1000 nM; EC50 (β1-adrenergic receptor; cAMP HTRF, read-out: β1 EC50): > 1000 nM |
| COc1ccc(C[C@@H](C)NC[C@@H](O)c2cccc(C(F)(F)F)n2)cc1 [Compound 03-16] | 10 to 100 nM | 100 to 1000 nM | 10 to 100 nM | 100 to 1000 nM | – |
| CC(C)(C)NC[C@@H](O)c1cccc(-c2ccc[nH]2)n1 [Compound 03-244] | 10 to 100 nM | 100 to 1000 nM | – | – | – |
| O[C@H](CNC1(C(F)(F)F)CC1)c1cccc(C(F)(F)F)n1 [Compound 03-235] | > 1000 nM | > 1000 nM | – | – | – |
| CC(C)(C)NC[C@H](O)c1cccc(-c2cccc(F)c2)n1 [Compound 03-131] | < 10 nM | – | < 10 nM | 10 to 100 nM | Average pEC50 [Receptor subtype: B1-AR; Cell type: CHO-K1 (HitHunter)] (β1-adrenergic receptor; B1-AR, CHO-K1 (HitHunter)): B (B = 8-7) |
| CNCc1cccc([C@@H](O)CN[C@H](C)Cc2ccc(OC)cc2)n1 [Compound 03-254] | 100 to 1000 nM | > 1000 nM | – | – | – |
| CC(C)(C)NC[C@H](O)c1cccc(C(C)(C)C#N)n1 [Compound 03-207] | < 10 nM | < 10 nM | – | – | – |
| CC(C)(COc1ccccc1)NC[C@@H](O)c1cccc(C(F)(F)F)n1 [Compound 03-185] | > 1000 nM | – | > 1000 nM | > 1000 nM | Average pEC50 [Receptor subtype: B1-AR; Cell type: CHO-K1 (HitHunter)] (β1-adrenergic receptor; B1-AR, CHO-K1 (HitHunter)): D (D < 6) |
| CC1(NC[C@@H](O)c2cccc(C(F)(F)F)n2)CCC1 [Compound 03-12] | 100 to 1000 nM | > 1000 nM | 100 to 1000 nM | > 1000 nM | – |
| Cc1cnccc1[C@@H](O)CNC(C)(C)C [Compound 03-247, (R)-2-(tert-butylamino)-1-(3-methylpyridin-4-yl)ethan-1-ol] | > 1000 nM | > 1000 nM | – | – | – |
| CC(C)(C)NC[C@H](O)c1cccc(-c2ccccc2Cl)n1 [Compound 03-133] | < 10 nM | – | < 10 nM | 100 to 1000 nM | Average pEC50 [Receptor subtype: B1-AR; Cell type: CHO-K1 (HitHunter)] (β1-adrenergic receptor; B1-AR, CHO-K1 (HitHunter)): C (C = <7-6) |
| Cc1nc(C2CC2)ccc1[C@@H](O)CNC(C)(C)C [Compound 03-268] | < 10 nM | 10 to 100 nM | – | – | – |
| CC(C)(C)NC[C@H](O)c1cccc(-c2ccccc2F)n1 [Compound 03-155] | < 10 nM | 10 to 100 nM | < 10 nM | 10 to 100 nM | – |
| CC(C)(C)NC[C@@H](O)c1ccnc(C(F)(F)F)c1 [Compound 03-211] | 100 to 1000 nM | 100 to 1000 nM | – | – | – |
| Cc1cccc(-c2cccc([C@@H](O)CNC(C)(C)C)n2)c1 [Compound 03-147] | < 10 nM | 10 to 100 nM | < 10 nM | 10 to 100 nM | – |
